Measurements reported in ChEMBL document CHEMBL4387785, “Discovery of a C-8 hydroxychromene as a potent degrader of estrogen receptor alpha with improved rat oral exposure over GDC-0927” (Bioorg Med Chem Lett, 2019).

Experiment: Oral bioavailability in rat at 1 mg/kg administered as suspension
Type: ADME, organism-based
Details: in vivo

bioavailability | Structure (SMILES)
30% | CC1=C(c2cccc(O)c2)[C@H](c2ccc(OCCN3CC(CF)C3)cc2)Oc2c(O)cccc21

Experiment: Dose normalized AUC in rat at 5 mg/kg, po administered as suspension
Type: ADME, organism-based
Details: in vivo

AUC/dose | Structure (SMILES)
0.04 µM·h | CC1=C(c2cccc(O)c2)[C@H](c2ccc(OCCN3CC(CF)C3)cc2)Oc2ccc(O)cc21

Experiment: Dose normalized AUC in rat at 1 mg/kg, po administered as suspension
Type: ADME, organism-based
Details: in vivo

AUC/dose | Structure (SMILES)
0.43 µM·h | CC1=C(c2cccc(O)c2)[C@H](c2ccc(OCCN3CC(CF)C3)cc2)Oc2c(O)cccc21

Experiment: in vivo
Details: rat, iv, 1 mg/kg

clearance | Structure (SMILES)
100 mL/min/kg | CC1=C(c2cccc(O)c2)[C@H](c2ccc(OCCN3CC(CF)C3)cc2)Oc2ccc(O)cc21
18 mL/min/kg | CC1=C(c2cccc(O)c2)[C@H](c2ccc(OCCN3CC(CF)C3)cc2)Oc2c(O)cccc21

Experiment: in vivo
Details: rat, po, 5 mg/kg

bioavailability | Structure (SMILES)
10% | CC1=C(c2cccc(O)c2)[C@H](c2ccc(OCCN3CC(CF)C3)cc2)Oc2ccc(O)cc21

Experiment: in vitro
Details: human, liver microsomes

CLhep predicted | Structure (SMILES)
10 mL/min/kg | CC1=C(c2ccc(F)cc2)[C@H](c2ccc(OCCN3CC(CF)C3)cc2)Oc2ccc(O)cc21
9 mL/min/kg | CC1=C(c2ccc(F)cc2)[C@H](c2ccc(OCCN3CC(CF)C3)cc2)Oc2c(O)cccc21
12 mL/min/kg | CC1=C(c2cccc(O)c2)[C@H](c2ccc(OCCN3CC(CF)C3)cc2)Oc2ccc(O)cc21
9 mL/min/kg | CC1=C(c2cccc(O)c2)[C@H](c2ccc(OCCN3CC(CF)C3)cc2)Oc2c(O)cccc21

Structure (SMILES) | CLhep predicted
Oc1cccc(C2=Cc3cc(O)ccc3O[C@H]2c2ccc(OCCN3CC(CF)C3)cc2)c1 | 12 mL/min/kg
CCC1=C(c2cccc(O)c2)[C@H](c2ccc(OCCN3CC(CF)C3)cc2)Oc2ccc(O)cc21 | 12 mL/min/kg
CC1=C(c2ccc(F)cc2)[C@H](c2ccc(OCCN3CC(CF)C3)cc2)Oc2cc(F)c(O)cc21 | 8 mL/min/kg

Experiment: in vitro
Details: rat, liver microsomes

CLhep predicted | Structure (SMILES)
28 mL/min/kg | CC1=C(c2ccc(F)cc2)[C@H](c2ccc(OCCN3CC(CF)C3)cc2)Oc2ccc(O)cc21
27 mL/min/kg | CC1=C(c2ccc(F)cc2)[C@H](c2ccc(OCCN3CC(CF)C3)cc2)Oc2c(O)cccc21
45 to 46 mL/min/kg | CC1=C(c2cccc(O)c2)[C@H](c2ccc(OCCN3CC(CF)C3)cc2)Oc2ccc(O)cc21
43 mL/min/kg | CC1=C(c2cccc(O)c2)[C@H](c2ccc(OCCN3CC(CF)C3)cc2)Oc2c(O)cccc21

Structure (SMILES) | CLhep predicted
Oc1cccc(C2=Cc3cc(O)ccc3O[C@H]2c2ccc(OCCN3CC(CF)C3)cc2)c1 | 36 mL/min/kg
CCC1=C(c2cccc(O)c2)[C@H](c2ccc(OCCN3CC(CF)C3)cc2)Oc2ccc(O)cc21 | 39 mL/min/kg
CC1=C(c2ccc(F)cc2)[C@H](c2ccc(OCCN3CC(CF)C3)cc2)Oc2cc(F)c(O)cc21 | 20 mL/min/kg

Experiment: in vitro
Details: human, hepatocytes

Structure (SMILES) | CLhep predicted
Oc1cccc(C2=Cc3cc(O)ccc3O[C@H]2c2ccc(OCCN3CC(CF)C3)cc2)c1 | 17 mL/min/kg
CC1=C(c2ccc(F)cc2)[C@H](c2ccc(OCCN3CC(CF)C3)cc2)Oc2ccc(O)cc21 | 14 mL/min/kg
CCC1=C(c2cccc(O)c2)[C@H](c2ccc(OCCN3CC(CF)C3)cc2)Oc2ccc(O)cc21 | 15 mL/min/kg
CC1=C(c2ccc(F)cc2)[C@H](c2ccc(OCCN3CC(CF)C3)cc2)Oc2cc(F)c(O)cc21 | 15 mL/min/kg
CC1=C(c2cccc(O)c2)[C@H](c2ccc(OCCN3CC(CF)C3)cc2)Oc2ccc(O)cc21 | 16 mL/min/kg
CC1=C(c2cccc(O)c2)[C@H](c2ccc(OCCN3CC(CF)C3)cc2)Oc2c(O)cccc21 | 13 mL/min/kg

Experiment: in vitro
Details: rat, hepatocytes

Structure (SMILES) | CLhep predicted
Oc1cccc(C2=Cc3cc(O)ccc3O[C@H]2c2ccc(OCCN3CC(CF)C3)cc2)c1 | 41 mL/min/kg
CC1=C(c2ccc(F)cc2)[C@H](c2ccc(OCCN3CC(CF)C3)cc2)Oc2ccc(O)cc21 | 31 mL/min/kg
CCC1=C(c2cccc(O)c2)[C@H](c2ccc(OCCN3CC(CF)C3)cc2)Oc2ccc(O)cc21 | 40 mL/min/kg
CC1=C(c2ccc(F)cc2)[C@H](c2ccc(OCCN3CC(CF)C3)cc2)Oc2cc(F)c(O)cc21 | 28 mL/min/kg
CC1=C(c2cccc(O)c2)[C@H](c2ccc(OCCN3CC(CF)C3)cc2)Oc2ccc(O)cc21 | 45 to 46 mL/min/kg
CC1=C(c2cccc(O)c2)[C@H](c2ccc(OCCN3CC(CF)C3)cc2)Oc2c(O)cccc21 | 44 mL/min/kg

Experiment: in vitro
Details: dog, MDCK

Papp A→B | Structure (SMILES)
4.6 ×10⁻⁶ cm/s | CC1=C(c2cccc(O)c2)[C@H](c2ccc(OCCN3CC(CF)C3)cc2)Oc2ccc(O)cc21
2.4 ×10⁻⁶ cm/s | CC1=C(c2cccc(O)c2)[C@H](c2ccc(OCCN3CC(CF)C3)cc2)Oc2c(O)cccc21
